The record followed here is patent US20240352000A1, “NOVEL PYRIMIDINE-2,4-DIAMINE DERIVATIVES, PREPARATION METHOD THEREFOR, AND PHARMACEUTICAL COMPOSITION CONTAINING SAME AS ACTIVE INGREDIENT FOR PREVENTION OR TREATMENT OF CANCER” (KOREA RESEARCH INSTITUTE OF CHEMICAL TECHNOLOGY, priority 2021, published 2024).

One experiment addresses HER2 A775_G776insYVMA (Homo sapiens (Human), UniProt P04626, INS775YVMA). Description: HTRF enzyme assay, HER2 mutant enzyme. To be noted: recombinant enzyme, 37° C. 2 hours. Format: biochemical. On the procedure:
An experiment to measure the activity of the compounds of the present invention against HER mutant enzymes was performed as follows using the HTRF system sold by Cisbio. For the HER2 mutant enzyme, HER2 A775_G776insYVMA mutant enzyme, a recombinant protein provided by Carna Biosciences was purchased and used.
(§1) The composition of the assay buffer used for measuring the activity was 50 mM Tris-HCl pH 7.5, 100 mM NaCl, 7.5 mM MgCl2, 3 mM KCl, 0.01% Tween 20, 0.1% BSA, and 1 mM DTT. Here, an enzyme reaction was performed using with ATP at a concentration of […] and a peptide substrate labeled biotin at a concentration of […]. Analysis of the inhibitory effect of the compounds against the HER2 A775_G776insYVMA mutant activity was conducted according to the following analysis reaction recipe. • Component 1: 4 μL of a HER2 A775_G776insYVMA mutant enzyme • Component 2: 2 μL of a compound solution • Component 3: 4 μL of ATP and a peptide labeled with biotin
(§2) The enzyme reaction was started by first mixing Component 1 and Component 2 and then adding Component 3. After reaction at 37° C. for 2 hours, […] of measurement solution consisting of streptavidin-XL665 and europium-labeled anti-phosphotyrosine antibody provided by Cisbio was added to the enzyme reaction solution and reacted at room temperature for 1 hour. Finally, the ratio of fluorescence values at 615 nm and 665 nm was obtained using the Envision equipment from Perkin-Elmer to quantitatively measure the enzyme activity and confirmed the inhibitory ability of the compounds. The measurement values measured at seven compound concentrations were analyzed using the Prism program (version 5.01, Graphpad Software, Inc.), and the IC50 value, which is an indicator of the inhibitory ability of the compound, was calculated.

The next experiment addresses EGFR del19/T790M (Homo sapiens (Human), UniProt P00533, DEL746-750/T790M). Briefly: HTRF enzyme assay, EGFR del19/T790M mutant enzyme. The experiment is classed as biochemical. To be noted: recombinant enzyme, 37° C. 2 hours. As to the method: (§3) An experiment to measure the activity of the compounds of the present invention against EGFR mutant enzymes was performed as follows using the HTRF system sold by Cisbio. For the EGFR del19/T790M mutant enzyme, a recombinant protein provided by Carna Biosciences was purchased and used, and for the EGFR del19/T790M/C797S mutant enzyme, a protein provided by SignalChem was purchased and used as an enzyme source.
as §1, with “performed using ATP at” for “performed using with ATP at”, “substrate labeled with biotin at” for “substrate labeled biotin at”, “against the EGFR activity was” for “against the HER2 A775_G776insYVMA mutant activity was”, “μL of an EGFR mutant enzyme” for “μL of a HER2 A775_G776insYVMA mutant enzyme”
as §2

For a further experiment, the system named is Ba/F3 EGFR del19/T790M. Description: CellTiter-Glo cell viability, Ba/F3 EGFR del19/T790M. The experiment is classed as cell-based. The following applies: 72 hours. As to the method: An experiment to measure the activity of the compounds of the present invention against the mutant Ba/F3 EGFR cell line was performed as follows using the CellTiter-Glo system sold by Promega. The CellTiter-Glo assay is a method to confirm the cell viability by measuring ATP present in cells in cell culture. For the Ba/F3 EGFR del19, Ba/F3 EGFR del19/T790M, Ba/F3 del19/T790M/C797S mutant cell line, a cell line provided by Crown Bioscience was purchased and used. The Ba/F3 EGFR del19, Ba/F3 EGFR del19/T790M, Ba/F3 del19/T790M/C797S mutant cell line was cultured in RPMI containing 10% FBS and 1% penicillin-streptomycin with 1 μg of puromycin in an incubator at 37° C. and 5% CO2.
Analysis of the inhibitory ability effect of the compounds against EGFR was conducted according to the following analysis reaction recipe.
2500 cells/90 μL were passaged and cultured in a 96-well cell culture plate, and after 24 hours, treated with the compound represented by Formula 1 at a concentration of 0, 0.01, 0.03, 0.1, 0.3, 1, 3, and 10 (μM). After reaction for 72 hours, the plate treated with the compound was left at room temperature for 30 minutes, then further treated with 100 μl of reagent, and shaken at room temperature for 10 minutes. Finally, the ratio of fluorescence values at 570 nm was obtained using the equipment to quantitatively measure and confirmed the inhibitory ability of the compounds. The measurement values measured at eight compound concentrations were analyzed using the Prism program (version 5.01, Graphpad Software, Inc.), and the IC50 value, which is an indicator of the inhibitory ability of the compound, was calculated.

The target in the next experiment is EGFR A763_Y764insFHEA (Homo sapiens (Human), UniProt P00533, INS763FHEA). Description: HTRF enzyme assay, EGFR Ex20 insertion mutant enzyme. Format: biochemical. The following applies: recombinant enzyme, 37° C. 2 hours. As to the method:
An experiment to measure the activity of the compounds of the present invention against EGFR mutant enzymes was performed as follows using the HTRF system sold by Cisbio. For the EGFR mutant enzyme, EGFR A763_Y764insFHEA enzyme, a recombinant protein provided by SignalChem was purchased and used.
as §1, with “performed using ATP at” for “performed using with ATP at”, “substrate labeled with biotin at” for “substrate labeled biotin at”, “against the EGFR activity was” for “against the HER2 A775_G776insYVMA mutant activity was”, “μL of an EGFR mutant enzyme” for “μL of a HER2 A775_G776insYVMA mutant enzyme”
as §2

In another experiment the target is EGFR del19/T790M/C797S (Homo sapiens (Human), UniProt P00533, C797S/DEL746-750/T790M). Description: HTRF enzyme assay, EGFR del19/T790M/C797S mutant enzyme. Format: biochemical. To be noted: enzyme from SignalChem, 37° C. 2 hours. As to the method:
as §3
as §1, with “performed using ATP at” for “performed using with ATP at”, “substrate labeled with biotin at” for “substrate labeled biotin at”, “against the EGFR activity was” for “against the HER2 A775_G776insYVMA mutant activity was”, “μL of an EGFR mutant enzyme” for “μL of a HER2 A775_G776insYVMA mutant enzyme”
as §2

EGFR del19/T790M, sequence (P00533 other isoform, or with tags, fused parts or gaps T790M/del 1-668/del 746-750 limits assumed): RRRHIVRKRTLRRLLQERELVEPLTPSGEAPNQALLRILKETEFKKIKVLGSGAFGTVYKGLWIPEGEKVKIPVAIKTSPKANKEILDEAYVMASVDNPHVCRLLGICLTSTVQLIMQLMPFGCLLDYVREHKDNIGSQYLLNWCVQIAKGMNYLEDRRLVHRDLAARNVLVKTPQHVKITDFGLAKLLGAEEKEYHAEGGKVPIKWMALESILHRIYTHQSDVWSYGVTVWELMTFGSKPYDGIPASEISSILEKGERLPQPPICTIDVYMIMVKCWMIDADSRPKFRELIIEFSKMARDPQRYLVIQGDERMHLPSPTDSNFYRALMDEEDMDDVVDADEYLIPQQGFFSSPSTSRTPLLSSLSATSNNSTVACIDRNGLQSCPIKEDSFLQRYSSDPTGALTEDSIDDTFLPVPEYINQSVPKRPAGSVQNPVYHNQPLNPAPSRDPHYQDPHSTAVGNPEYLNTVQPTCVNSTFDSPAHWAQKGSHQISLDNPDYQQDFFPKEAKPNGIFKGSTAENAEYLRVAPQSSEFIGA
EGFR A763_Y764insFHEA, sequence (P00533 other isoform, or with tags, fused parts or gaps del 1-694/ins FHEA behind 763 limits assumed): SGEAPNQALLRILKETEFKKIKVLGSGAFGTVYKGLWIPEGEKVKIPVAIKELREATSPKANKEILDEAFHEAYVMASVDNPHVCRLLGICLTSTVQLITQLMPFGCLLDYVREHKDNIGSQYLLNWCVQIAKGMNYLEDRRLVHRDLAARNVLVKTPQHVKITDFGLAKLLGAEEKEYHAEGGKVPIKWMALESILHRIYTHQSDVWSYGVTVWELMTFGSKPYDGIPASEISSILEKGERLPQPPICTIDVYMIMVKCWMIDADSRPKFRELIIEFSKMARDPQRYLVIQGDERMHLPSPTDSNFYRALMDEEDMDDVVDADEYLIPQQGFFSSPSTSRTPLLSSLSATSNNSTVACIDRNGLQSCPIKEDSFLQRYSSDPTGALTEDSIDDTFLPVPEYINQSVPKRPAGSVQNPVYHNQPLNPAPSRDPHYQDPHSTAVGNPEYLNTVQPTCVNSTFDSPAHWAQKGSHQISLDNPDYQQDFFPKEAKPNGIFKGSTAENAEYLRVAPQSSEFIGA
HER2 A775_G776insYVMA, sequence (P04626 other isoform, or with tags, fused parts or gaps del 1-675/ins YVMA behind 775 limits assumed): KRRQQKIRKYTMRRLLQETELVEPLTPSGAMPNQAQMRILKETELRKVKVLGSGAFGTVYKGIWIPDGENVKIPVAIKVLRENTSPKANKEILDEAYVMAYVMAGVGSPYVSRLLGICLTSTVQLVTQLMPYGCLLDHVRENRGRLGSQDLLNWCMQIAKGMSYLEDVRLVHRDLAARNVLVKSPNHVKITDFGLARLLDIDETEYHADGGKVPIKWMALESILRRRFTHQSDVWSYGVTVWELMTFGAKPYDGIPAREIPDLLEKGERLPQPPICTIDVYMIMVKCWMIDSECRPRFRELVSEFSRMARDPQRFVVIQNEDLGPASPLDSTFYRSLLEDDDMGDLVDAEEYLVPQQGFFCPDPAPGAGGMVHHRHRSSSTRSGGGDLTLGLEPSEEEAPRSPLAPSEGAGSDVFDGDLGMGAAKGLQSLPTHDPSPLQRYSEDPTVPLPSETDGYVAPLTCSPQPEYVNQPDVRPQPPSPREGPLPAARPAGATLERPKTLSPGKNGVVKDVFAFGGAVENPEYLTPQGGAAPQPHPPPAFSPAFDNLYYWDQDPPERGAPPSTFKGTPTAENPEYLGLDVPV
EGFR del19/T790M/C797S, sequence (P00533 other isoform, or with tags, fused parts or gaps T790M/C797S/del 1-694/del 746-750 limits assumed): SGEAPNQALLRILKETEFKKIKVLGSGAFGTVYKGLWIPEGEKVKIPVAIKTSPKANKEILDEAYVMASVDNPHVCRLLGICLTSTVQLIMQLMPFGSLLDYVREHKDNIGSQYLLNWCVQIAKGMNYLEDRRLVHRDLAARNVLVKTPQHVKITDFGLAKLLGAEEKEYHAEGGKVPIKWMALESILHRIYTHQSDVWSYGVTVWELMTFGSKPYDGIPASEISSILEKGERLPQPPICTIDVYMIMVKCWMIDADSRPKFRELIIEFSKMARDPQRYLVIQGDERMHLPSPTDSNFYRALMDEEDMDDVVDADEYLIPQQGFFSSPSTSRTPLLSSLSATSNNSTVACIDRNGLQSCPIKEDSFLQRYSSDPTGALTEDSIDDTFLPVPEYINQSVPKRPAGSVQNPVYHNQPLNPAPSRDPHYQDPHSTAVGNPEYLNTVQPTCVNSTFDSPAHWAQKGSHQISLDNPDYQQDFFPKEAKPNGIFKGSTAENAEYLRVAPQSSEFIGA

Consider `COc1cc(N2CCC(N3CCN(C)CC3)CC2)ccc1Nc1ncc(Cl)c(Nc2cccc3c2N(S(C)(=O)=O)CC3)n1` [Example 2, 5-chloro-N2-(2-methoxy-4-(4-(4-methylpiperazin-1-yl)piperidin-1-yl)phenyl)-N4-(1-(methylsulfonyl)indolin-7-yl)pyrimidine-2,4-diamine], for which the IC50 on HER2 A775_G776insYVMA was 1 nM; on EGFR del19/T790M, under 1 nM; in the experiment with Ba/F3 EGFR del19/T790M it was under 100 nM; at EGFR A763_Y764insFHEA it was 1.7 nM; on EGFR del19/T790M/C797S it was under 1 nM.

With `COc1cc(N2CCC(N3CCN(C)CC3)CC2)ccc1Nc1ncc(Cl)c(Nc2cccc3c2N(S(C)(=O)=O)CCC3)n1` [Example 5, 5-chloro-N2-(2-methoxy-4-(4-(4-methylpiperazin-1-yl)piperidin-1-yl)phenyl)-N4-(1-(methylsulfonyl)-1,2,3,4-tetrahydroquinolin-8-yl)pyrimidine-2,4-diamine], the IC50 on HER2 A775_G776insYVMA was 3 nM; on EGFR del19/T790M, under 1 nM; in the experiment with Ba/F3 EGFR del19/T790M, under 30 nM; on EGFR A763_Y764insFHEA, 11 nM; against EGFR del19/T790M/C797S it was under 1 nM.
